Reference: ChEMBL document CHEMBL3887009, “Substituted benzoxazoles” (2016)

Test: Inhibition Assay: To determine the thrombin inhibition of the substances listed above, a biochemical test system is constructed in which the conversion of a thrombin substrate is used for determining the enzymatic activity of human thrombin. Here, thrombin cleaves aminomethylcoumarin, which is measured fluorescently, from the peptic substrate. The determinations are carried out in microtitre plates.Substances to be tested are dissolved in various concentrations in dimethyl sulphoxide and incubated for 15 min with human thrombin (0.06 nmol/l dissolved in 50 mmol/l of Tris buffer [C,C,C-tris(hydroxymethyl)aminomethane], 100 mmol/l of sodium chloride, 0.1% BSA [bovine serum albumin], pH 7.4) at 22° C. The substrate (5 umol/l Boc-Asp(OBzl)-Pro-Arg-AMC from Bachem) is then added. After 30 min of incubation, the sample is excited at a wavelength of 360 nm and the emission is measured at 460 nm. The measured emissions of the test batches with test substance are compared to the control batches without test substance (only dimethyl sulphoxide instead of test substance in dimethyl sulphoxide) and the IC50 values are calculated from the concentration/activity relationships.

COc1cc(C(=O)N2CC(C)(CCO)OC[C@H]2C)cc2nc(N[C@H](CF)c3cccc(Cl)c3)oc12 (stereo partly specified)
IC50: 0.13 µM
